# According to patent US20130129841A1, “THERAPEUTIC COMBINATION COMPRISING A PARP-1 INHIBITOR AND AN ANTI-NEOPLASTIC AGENT” (NERVIANO MEDICAL SCIENCES S.r.l., priority 2010, published 2013):
# Where two headings read alike, the source gives them in different places.
# Columns and labels:
# [1] = system: HCT-116 human colon cancer cell line; test: In vitro combination cytotoxic activity, cell proliferation (CellTiterGlo), 6 days; assay type: cell-based; conditions: single agent
# Procedure: (§1) Materials and methods. Exponentially growing human cancer cell line (MDA-MB-436, MDA-MB-468, A-375, HCT-116, KM-12) was seeded and incubated at 37° C. in a humidified 5% CO2 atmosphere. Drugs were added to the experimental culture, and incubations were carried out at 37° C. for 6 days in the dark. Serial dilution curves were prepared in medium by using a liquid handler Multiprobe II (PerkinElmer). Scalar doses of the compound of formula (I) and antineoplastic agents were added to the medium 24 hours after seeding. Drug solutions were prepared immediately before use. At the end of treatment, cell proliferation was determined by an intracellular adenosine triphosphate monitoring system (CellTiterGlo- Promega) using an Envision (PerkinElmer) reader. Inhibitory activity was evaluated comparing treated versus control data using the Assay Explorer (MDL) program. The dose inhibiting 50% of cell growth was calculated using sigmoidal interpolation curve.
# [2] = system: KM-12 human colon cancer cell line; test: as above; assay type: cell-based
# Procedure: as §1
# [3] = system: Capan-1 BRCA-2 mutated human pancreatic xenograft model; conditions: for Toxicity: number of death animals
# Procedure: (§2) Balb, Nu/Nu male mice, from Harlan (Italy) or CD1 Nu/Nu female mice from CRI, were maintained in agreement with the European Communities Council Directive no. 86/609/EEC, in cages with paper filter cover, food and bedding sterilized and acidified water. Fragments of Capan-1 human pancreatic cancer tumors, MX-1 human breast cancer tumors and HCT-116 human colon carcinoma were implanted subcutaneously. KM-12 cells were grown in vitro and 3×106 in 0,2 ml were implanted subcutaneously. The treatment started when tumors were palpable.
# (§3) Compounds of formula (I) were administered by oral route in a volume of 10 ml/kg at the indicated doses from day 1 to 12. Temozolomide was administered orally at the dose of 62.5 mg/kg for 5 days. When combined, compound of formula (I) was administered from day 1 to 12 and temozolomide from day 3 to day 7. Irinotecan was administered intravenous at the dose of 45 mg/kg 2 or 3 times every 4 days. When combined, compound of formula (I) was administered from day 1 to 8 or to 12 and irinotecan on day 3 and day 7 or and days 1, 5 and 9. Docetaxel was administered intravenously at the dose of 5 mg/kg once a week for three times. When combined, compound of formula (I) was administered from day 1 to 12 and docetaxel on days 1, 8 and 15.
# (§4) Tumor growth and body weight were measured every 3 days. Tumor growth was assessed by caliper. The two diameters were recorded and the tumor weight was calculated according the following formula: length (mm)×width^2 /2. The effect of the antitumor treatment was evaluated as the delay in the onset of an exponential growth of the tumor (see for references Anticancer drugs 7:437-60, 1996). This delay (T-C value) was defined as the difference of time (in days) required for the treatment group (T) and the control group (C) tumors to reach a predetermined size (1 g). Toxicity was evaluated on the basis of number of death animals during the experiment.
# [4] = system: A-375 human melanoma cell line; test: In vitro combination cytotoxic activity, cell proliferation (CellTiterGlo), 6 days; assay type: cell-based; conditions: single agent
# Procedure: as §1, with “Exponentially growing human cancer cell line (MDA-MB-436, MDA-MB-468, A-375, HCT-116, KM-12) was seeded and incubated at 37° C. in a humidified 5% CO2 atmosphere.” left out
# [5] = system: HCT-116 human colorectal cancer xenograft model
# Procedure: as §2, §3, §4
# [6] = system: KM-12 human colorectal cancer xenograft model pTEN mutated
# Procedure: as §2, §3, §4
# [7] = system: MX-1 human breast cancer xenograft model BRCA-1 mutated; conditions: MX-1 xenograft; for Toxicity: number of death animals
# Procedure: as §2, §3, §4
# [8] = system: ovarian cancer patients with confirmed BRCA-1 mutations; conditions: phase I, monotherapy, oral, preliminary data; cited from earlier work
# [9] = Capan-1, Table 8, Compound 1 100 mg/kg oral, days 1 to 12
# [10] = Capan-1, Table 9, Compound 2 50 mg/kg oral, days 1 to 12
# [11] = Compound 2 100 mg/kg oral, days 1 to 8 (footnote *)
# [12] = Capan-1, Table 8, temozolomide 62.5 mg/kg oral, days 3 to 7
# [13] = Capan-1, Table 9, temozolomide 62.5 mg/kg oral, days 3 to 7
# [14] = docetaxel 5 mg/kg intravenous, days 1, 8 and 15
smiles,measurement,setting,value
"CCc1c2c(nc3ccc(O)cc13)-c1cc3c(c(=O)n1C2)COC(=O)[C@]3(O)CC [SN-38, reference compound]",IC50,[1],0.0011 µM
same,IC50,[2]; single agent,0.0015 µM
"NC(=O)c1cccc2c1C(=O)N(C1CCN(C3CCC(F)(F)CC3)CC1)C2 [Compound 1, 2-[1-(4,4-difluorocyclohexyl)piperidin-4-yl]-3-oxo-2,3-dihydro-1H-isoindole-4-carboxamide]",T-C,[3]; [9],5 days
same,Toxicity,[3]; [9],0/7
"NC(=O)c1cc(F)cc2c1C(=O)N(C1CCN(C3CCC(F)(F)CC3)CC1)C2 [Compound 2, 2-[1-(4,4-difluorocyclohexyl)piperidin-4-yl]-6-fluoro-3-oxo-2,3-dihydro-1H-isoindole-4-carboxamide]",IC50,[4],32.5 µM
same,IC50,[1]; Homo sapiens,14.1 µM
same,IC50,"[2]; Homo sapiens, KM12, single agent",19.4 µM
same,T-C,[3]; [10],6 days
same,Toxicity,[3]; [10],0/7
same,T-C,"[5]; HCT-116 xenograft, Compound 2 50 mg/kg oral, days 1 to 8",1 days
same,T-C,"[5]; HCT-116 xenograft, Compound 2 100 mg/kg oral, days 1 to 8",4 days
same,Toxicity,"[5]; mouse, in vivo, po, 50 mg/kg",0/7
same,Toxicity,"[5]; mouse, in vivo, po, 100 mg/kg",0/7
same,T-C,"[6]; KM-12 xenograft, Compound 2 50 mg/kg oral, days 1 to 12",1 days
same,Toxicity,"[6]; mouse, in vivo, po, 50 mg/kg",0/7
same,T-C,[7]; [11],2 days
same,Toxicity,[7]; [11],0/7
"CCc1c2c(nc3ccc(OC(=O)N4CCC(N5CCCCC5)CC4)cc13)-c1cc3c(c(=O)n1C2)COC(=O)[C@]3(O)CC [Irinotecan, irinotecan, reference compound]",T-C,"[5]; HCT-116 xenograft, irinotecan 45 mg/kg intravenous, days 1, 5 and 9",16 days
same,Toxicity,"[5]; HCT-116 xenograft, irinotecan 45 mg/kg intravenous, days 1, 5 and 9, number of death animals",0/7
same,T-C,"[6]; KM-12 xenograft, irinotecan 45 mg/kg intravenous, days 3 and 7",1 days
same,Toxicity,"[6]; KM-12 xenograft, irinotecan 45 mg/kg intravenous, days 3 and 7, number of death animals",0/7
"Cn1nnc2c(C(N)=O)ncn2c1=O [Temozolomide, temozolomide, reference compound]",IC50,[4],932 µM
same,T-C,[3]; [12],5 days
same,Toxicity,[3]; [12],0/7
same,T-C,[3]; [13],9 days
same,Toxicity,[3]; [13],0/7
O=C(c1cc(Cc2n[nH]c(=O)c3ccccc23)ccc1F)N1CCN(C(=O)C2CC2)CC1 [AZD2281],partial responses,[8],4 out of 10
"CC(=O)O[C@@]12CO[C@@H]1C[C@H](O)[C@@]1(C)C(=O)[C@H](O)C3=C(C)[C@@H](OC(=O)[C@H](O)[C@@H](NC(=O)OC(C)(C)C)c4ccccc4)C[C@@](O)([C@@H](OC(=O)c4ccccc4)[C@H]21)C3(C)C [Docetaxel, docetaxel, reference compound]",T-C,[7]; [14],3 days
same,Toxicity,[7]; [14],0/7
